In the supplement of paper PMC10307832:

Tests used:
Assay in all cases: relative viability (nuclei count vs DMSO), 5 days (fraction); higher = more cells survive
NCI-H1355 = tested on: NCI-H1355
Summary of the method: (§1)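 Relative viability was taken as the ratio of nuclei in treated wells to nuclei in vehicle wells. Lung cancer cell lines in 1536-well plates received compounds by pin tool one day after seeding, either one drug alone or a fixed anchor-drug dose plus five library-drug doses (not always all listed) in √10 steps. Nuclei were counted on 4× images after 5 days of treatment, and values are medians of duplicate plates.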

NCI-H838 = tested on: NCI-H838
Summary of the method: as §1

HARA = tested on: HARA
Summary of the method: as §1

NCI-H2009 = tested on: NCI-H2009
Summary of the method: as §1

SK-MES-1 = tested on: SK-MES-1
Summary of the method: as §1

PC-14 = tested on: PC-14
Summary of the method: as §1

COR-L 105 = tested on: COR-L 105
Summary of the method: as §1

NCI-H1993 = tested on: NCI-H1993
Summary of the method: as §1

EKVX = tested on: EKVX
Summary of the method: as §1

NCI-H2170 = tested on: NCI-H2170
Summary of the method: as §1

NCI-H1755 = tested on: NCI-H1755
Summary of the method: as §1

NCI-H2347 = tested on: NCI-H2347
Summary of the method: as §1

COR-L23 = tested on: COR-L23
Summary of the method: as §1

NCI-H1734 = tested on: NCI-H1734
Summary of the method: as §1

UMC-11 = tested on: UMC-11
Summary of the method: as §1

NCI-H647 = tested on: NCI-H647
Summary of the method: as §1

NCI-H1395 = tested on: NCI-H1395
Summary of the method: as §1

HOP-62 = tested on: HOP-62
Summary of the method: as §1

NCI-H2228 = tested on: NCI-H2228
Summary of the method: as §1

HCC-15 = tested on: HCC-15
Summary of the method: as §1

NCI-H358 = tested on: NCI-H358
Summary of the method: as §1

NCI-H1793 = tested on: NCI-H1793
Summary of the method: as §1

NC(=O)Nc1cc(-c2cccc(F)c2)sc1C(=O)N[C@H]1CCCNC1 [AZD7762] + Cc1nc(NC(=O)N2CCC[C@H]2C(N)=O)sc1-c1ccnc(C(C)(C)C(F)(F)F)c1 [Alpelisib] (partner 2 µM) showed a relative viability (NCI-H1355; first compound 0.01 µM) of 0.894, a relative viability (NCI-H1355; first compound 0.03162 µM) of 0.886 and a relative viability (NCI-H1355; first compound 0.1 µM) of 0.825. The relative viability (NCI-H1355; first compound 0.3162 µM) was 0.861, the relative viability (NCI-H1355; first compound 1 µM) was 0.852 and the relative viability (NCI-H838; first compound 0.01 µM) was 1. It also gave a relative viability (NCI-H838; first compound 0.03162 µM) of 1.01, a relative viability (NCI-H838; first compound 0.1 µM) of 0.871 and a relative viability (NCI-H838; first compound 0.3162 µM) of 0.959. The relative viability (NCI-H838; first compound 1 µM) was 0.616, the relative viability (HARA; first compound 0.01 µM) was 0.889 and the relative viability (HARA; first compound 0.03162 µM) was 0.887. For the same compound, the relative viability (HARA; first compound 0.1 µM) was 0.825, the relative viability (HARA; first compound 0.3162 µM) was 0.751 and the relative viability (HARA; first compound 1 µM) was 0.824. For the same compound, the relative viability (NCI-H2009; first compound 0.01 µM) was 1.3, the relative viability (NCI-H2009; first compound 0.03162 µM) was 1.15 and the relative viability (NCI-H2009; first compound 0.1 µM) was 1.27. For the same compound, the relative viability (NCI-H2009; first compound 0.3162 µM) was 1.08, the relative viability (NCI-H2009; first compound 1 µM) was 1.11 and the relative viability (SK-MES-1; first compound 0.01 µM) was 0.968. The relative viability (SK-MES-1; first compound 0.03162 µM) was 0.946, the relative viability (SK-MES-1; first compound 0.1 µM) was 1.02 and the relative viability (SK-MES-1; first compound 0.3162 µM) was 1.09. It also gave a relative viability (SK-MES-1; first compound 1 µM) of 0.591, a relative viability (PC-14; first compound 0.01 µM) of 0.894 and a relative viability (PC-14; first compound 0.03162 µM) of 0.953. It also gave a relative viability (PC-14; first compound 0.1 µM) of 0.922, a relative viability (PC-14; first compound 0.3162 µM) of 0.919 and a relative viability (PC-14; first compound 1 µM) of 0.392. It also gave a relative viability (COR-L 105; first compound 0.01 µM) of 1.2, a relative viability (COR-L 105; first compound 0.03162 µM) of 1.03 and a relative viability (COR-L 105; first compound 0.1 µM) of 0.92. For the same compound, the relative viability (COR-L 105; first compound 0.3162 µM) was 0.847, the relative viability (COR-L 105; first compound 1 µM) was 0.461 and the relative viability (NCI-H1993; first compound 0.01 µM) was 0.671. The relative viability (NCI-H1993; first compound 0.03162 µM) was 0.708, the relative viability (NCI-H1993; first compound 0.1 µM) was 0.651 and the relative viability (NCI-H1993; first compound 0.3162 µM) was 0.673. The relative viability (NCI-H1993; first compound 1 µM) was 0.753, the relative viability (EKVX; first compound 0.01 µM) was 0.846 and the relative viability (EKVX; first compound 0.03162 µM) was 0.845. It also gave a relative viability (EKVX; first compound 0.1 µM) of 0.805, a relative viability (EKVX; first compound 0.3162 µM) of 0.787 and a relative viability (EKVX; first compound 1 µM) of 0.468. It also gave a relative viability (NCI-H2170; first compound 0.01 µM) of 0.843, a relative viability (NCI-H2170; first compound 0.03162 µM) of 0.75 and a relative viability (NCI-H2170; first compound 0.1 µM) of 0.727. The relative viability (NCI-H2170; first compound 0.3162 µM) was 0.797, the relative viability (NCI-H2170; first compound 1 µM) was 0.776 and the relative viability (NCI-H1755; first compound 0.01 µM) was 0.957. It also gave a relative viability (NCI-H1755; first compound 0.03162 µM) of 0.924, a relative viability (NCI-H1755; first compound 0.1 µM) of 0.999 and a relative viability (NCI-H1755; first compound 0.3162 µM) of 0.907. For the same compound, the relative viability (NCI-H1755; first compound 1 µM) was 0.547, the relative viability (NCI-H2347; first compound 0.01 µM) was 1.07 and the relative viability (NCI-H2347; first compound 0.03162 µM) was 0.993. The relative viability (NCI-H2347; first compound 0.1 µM) was 1.11, the relative viability (NCI-H2347; first compound 0.3162 µM) was 1.26 and the relative viability (NCI-H2347; first compound 1 µM) was 1.01. It also gave a relative viability (COR-L23; first compound 0.01 µM) of 0.938, a relative viability (COR-L23; first compound 0.03162 µM) of 0.895 and a relative viability (COR-L23; first compound 0.1 µM) of 0.797. For the same compound, the relative viability (COR-L23; first compound 0.3162 µM) was 0.621, the relative viability (COR-L23; first compound 1 µM) was 0.162 and the relative viability (NCI-H1734; first compound 0.01 µM) was 0.729. It also gave a relative viability (NCI-H1734; first compound 0.03162 µM) of 0.782, a relative viability (NCI-H1734; first compound 0.1 µM) of 0.775 and a relative viability (NCI-H1734; first compound 0.3162 µM) of 0.753. For the same compound, the relative viability (NCI-H1734; first compound 1 µM) was 0.646, the relative viability (UMC-11; first compound 0.01 µM) was 1.03 and the relative viability (UMC-11; first compound 0.03162 µM) was 0.962. It also gave a relative viability (UMC-11; first compound 0.1 µM) of 1.06, a relative viability (UMC-11; first compound 0.3162 µM) of 1.03 and a relative viability (UMC-11; first compound 1 µM) of 0.653. For the same compound, the relative viability (NCI-H647; first compound 0.01 µM) was 1.28, the relative viability (NCI-H647; first compound 0.03162 µM) was 1.02 and the relative viability (NCI-H647; first compound 0.1 µM) was 1.04. The relative viability (NCI-H647; first compound 0.3162 µM) was 0.61, the relative viability (NCI-H647; first compound 1 µM) was 0.104 and the relative viability (NCI-H1395; first compound 0.01 µM) was 1.2. The relative viability (NCI-H1395; first compound 0.03162 µM) was 1.1, the relative viability (NCI-H1395; first compound 0.1 µM) was 1.16 and the relative viability (NCI-H1395; first compound 0.3162 µM) was 0.649. The relative viability (NCI-H1395; first compound 1 µM) was 0.436, the relative viability (HOP-62; first compound 0.01 µM) was 0.918 and the relative viability (HOP-62; first compound 0.03162 µM) was 1.22. The relative viability (HOP-62; first compound 0.1 µM) was 0.836, the relative viability (HOP-62; first compound 0.3162 µM) was 1.04 and the relative viability (HOP-62; first compound 1 µM) was 1.36. The relative viability (NCI-H2228; first compound 0.01 µM) was 0.886, the relative viability (NCI-H2228; first compound 0.03162 µM) was 0.666 and the relative viability (NCI-H2228; first compound 0.1 µM) was 0.8. It also gave a relative viability (NCI-H2228; first compound 0.3162 µM) of 0.407, a relative viability (NCI-H2228; first compound 1 µM) of 0.19 and a relative viability (HCC-15; first compound 0.01 µM) of 0.995. It also gave a relative viability (HCC-15; first compound 0.03162 µM) of 0.945, a relative viability (HCC-15; first compound 0.1 µM) of 0.983 and a relative viability (HCC-15; first compound 0.3162 µM) of 0.93. The relative viability (HCC-15; first compound 1 µM) was 1.12, the relative viability (NCI-H358; first compound 0.01 µM) was 0.819 and the relative viability (NCI-H358; first compound 0.03162 µM) was 0.964. It also gave a relative viability (NCI-H358; first compound 0.1 µM) of 0.837, a relative viability (NCI-H358; first compound 0.3162 µM) of 0.629 and a relative viability (NCI-H358; first compound 1 µM) of 0.33. For the same compound, the relative viability (NCI-H1793; first compound 0.01 µM) was 0.835, the relative viability (NCI-H1793; first compound 0.03162 µM) was 0.795 and the relative viability (NCI-H1793; first compound 0.1 µM) was 0.627. The relative viability (NCI-H1793; first compound 0.3162 µM) was 0.854 and the relative viability (NCI-H1793; first compound 1 µM) was 0.524.
